{
  "source": "patent US5624961A",
  "about": "“Benzylaminoethoxybenzene derivatives, production thereof and use thereof” (priority 1994, dated 1997)",
  "note": "Where a name gives a salt, the structure may show the parent alone.",
  "data": [
    {"system": "rabbit", "experiment": "Orthostatic hypotensive effect, tilting of unanesthetized rabbit, orthostatic index (O.I.)", "format": "in vivo", "details": "iv, tilted 90°, without anesthetization", "text": "Orthostatic hypotensive effect\nThe orthostatic hypotensive effect was examined by the following method which is in accordance with the method of Journal of Pharmacological Methods, vol. 5, p. 53 (1981). A rabbit was fixed at the dorsal position without anesthetization on an orthostatic hypotension measurement apparatus. Polyethylene catheters were inserted in right femoral artery and right femoral vein, and the catheter inserted in the artery was connected to a pressure transducer. The head of the rabbit was tilted rapidly at an angle of 90° from the horizontal position at 15 min intervals with the heart position as a rotational axis, and brought back to the horizontal position one minute later. The tilting was repeated three times, and after confirmation of occurrence of a constant response, a drug was administered from the polyethylene catheter inserted in the vein. […] [formula] (2) Test results", "values": [
      {"compound": "COc1c(C)c(C)c(O)c(C)c1CN(C)CCOc1cc(C)c(O)cc1C(C)C", "note": "[Ex. 1, N-(3-hydroxy-6-methoxy-2,4,5-trimethylbenzyl)-N-methyl-2-(4-hydroxy-2-isopropyl-5-methylphenoxy)ethylamine]", "Dose necessary for O.I. value to achieve 90%": "56.4 μg/kg, iv"},
      {"compound": "CCOc1c(C)c(C)c(O)c(C)c1CN(C)CCOc1cc(C)c(O)cc1C(C)C", "note": "[Ex. 4, N-(2-ethoxy-5-hydroxy-3,4,6-trimethylbenzyl)-N-methyl-2-(4-hydroxy-2-isopropyl-5-methylphenoxy)ethylamine]", "Dose necessary for O.I. value to achieve 90%": "61.3 μg/kg, iv"},
      {"compound": "COc1c(C)c(C)c(O)c(C)c1CNCCOc1cc(C)c(O)cc1C(C)C", "note": "[Ex. 21, N-(3-hydroxy-6-methoxy-2,4,5-trimethylbenzyl)-2-(4-hydroxy-2-isopropyl-5-methylphenoxy)ethylamine]", "Dose necessary for O.I. value to achieve 90%": "32.8 μg/kg, iv"},
      {"compound": "COc1c(C)c(C)c(OC)c(CN(C)CCOc2cc(C)c(O)cc2C(C)C)c1C", "note": "[Ex. 28, N-(2,5-dimethoxy-3,4,6-trimethylbenzyl)-N-methyl-2-(4-hydroxy-2-isopropyl-5-methylphenoxy)ethylamine]", "Dose necessary for O.I. value to achieve 90%": "40.3 μg/kg, iv"},
      {"compound": "COc1cc2nc(N3CCN(C(=O)c4ccco4)CC3)nc(N)c2cc1OC", "note": "[prazosin hydrochloride, reference compound]", "Dose necessary for O.I. value to achieve 90%": "5.6 μg/kg, iv"}
    ]},
    {"system": "α1 -adrenoceptor", "experiment": "α1-adrenoceptor blocking effect, preparation from the thoracic aorta of rabbit, Magnus method", "format": "cell-based", "details": "not given", "method": "Blocking of α1 -adrenoceptor\nThe α1 -adrenoceptor blocking effect was determined using a preparation from the thoracic aorta of rabbit, according to the Magnus method and expressed as pA2 value.", "values": [
      {"compound": "COc1c(C)c(C)c(O)c(C)c1CN(C)CCOc1cc(C)c(O)cc1C(C)C", "note": "[Ex. 1, N-(3-hydroxy-6-methoxy-2,4,5-trimethylbenzyl)-N-methyl-2-(4-hydroxy-2-isopropyl-5-methylphenoxy)ethylamine]", "pA2 value": 9.0},
      {"compound": "Cc1cc(OCCN(C)Cc2c(C)c(O)c(C)c(C)c2OCCO)c(C(C)C)cc1O", "note": "[Ex. 2, N-{3-hydroxy-6-(2-hydroxyethoxy)-2,4,5-trimethylbenzyl}-N-methyl-2-(4-hydroxy-2-isopropyl-5-methylphenoxy)ethylamine]", "pA2 value": 8.1},
      {"compound": "COc1c(C)c(C)c(O)c(C)c1CNCCOc1cc(C)c(NC(C)=O)cc1C(C)C", "note": "[Ex. 3, N-(3-hydroxy-6-methoxy-2,4,5-trimethylbenzyl)-2-(4-acetylamino-2-isopropyl-5-methylphenoxy)ethylamine]", "pA2 value": 8.2},
      {"compound": "CCOc1c(C)c(C)c(O)c(C)c1CN(C)CCOc1cc(C)c(O)cc1C(C)C", "note": "[Ex. 4, N-(2-ethoxy-5-hydroxy-3,4,6-trimethylbenzyl)-N-methyl-2-(4-hydroxy-2-isopropyl-5-methylphenoxy)ethylamine]", "pA2 value": 8.5},
      {"compound": "CCOc1c(C)c(C)c(OC(C)=O)c(C)c1CN(C)CCOc1cc(C)c(OC(C)=O)cc1C(C)C", "note": "[Ex. 5, N-(3-acetoxy-6-ethoxy-2,4,5-trimethylbenzyl)-N-methyl-2-(4-acetoxy-2-isopropyl-5-methylphenoxy)ethylamine]", "pA2 value": 8.3},
      {"compound": "CCN(CC)CCN(CCOc1cc(C)ccc1C(C)C)Cc1c(C)c(O)c(C)c(C)c1OC", "note": "[Ex. 6, N-(2-diethylaminoethyl)-N-(3-hydroxy-6-methoxy-2,4,5-trimethylbenzyl)-2-(2-isopropyl-5-methylphenoxy)ethylamine]", "pA2 value": 7.5},
      {"compound": "CCN(CCOc1cc(C)c(Cl)cc1C(C)C)Cc1c(C)c(O)c(C)c(C)c1OC", "note": "[Ex. 7, N-ethyl-N-(3-hydroxy-6-methoxy-2,4,5-trimethylbenzyl)-2-(4-chloro-2-isopropyl-5-methylphenoxy)ethylamine]", "pA2 value": 7.7},
      {"compound": "COc1c(C)c(C)c(OC)c(CN(CCOc2cc(C)ccc2C(C)C)C(C)=O)c1C", "note": "[Ex. 8, N-{2-(2-isopropyl-5-methylphenoxy)ethyl}-N-(2,5-dimethoxy-3,4,6-trimethylbenzyl)acetamide]", "pA2 value": 7.3},
      {"compound": "COc1c(C)c(C)c(O)c(C)c1CN(C)CCOc1cc(C)c(C(C)=O)cc1C(C)C", "note": "[Ex. 9, N-(3-hydroxy-6-methoxy-2,4,5-trimethylbenzyl)-N-methyl-2-(4-acetyl-2-isopropyl-5-methylphenoxy)ethylamine]", "pA2 value": 7.5},
      {"compound": "COc1c(C)c(C)c(OC)c(CN(C)CCOc2cc(C)c(NC(C)=O)cc2C(C)C)c1C", "note": "[Ex. 10, N-(2,5-dimethoxy-3,4,6-trimethylbenzyl)-N-methyl-2-(4-acetylamino-2-isopropyl-5-methylphenoxy)ethylamine]", "pA2 value": 7.4},
      {"compound": "COc1c(C)c(C)c(OC)c(CN(C)CCOc2cc(C)c(N)cc2C(C)C)c1C", "note": "[Ex. 11, N-(2,5-dimethoxy-3,4,6-trimethylbenzyl)-N-methyl-2-(4-amino-2-isopropyl-5-methylphenoxy)ethylamine]", "pA2 value": 8.3},
      {"compound": "COc1c(C)c(C)c(O)c(C)c1CN(C)CCOc1cc(C)ccc1C(C)C", "note": "[Ex. 12, N-(3-hydroxy-6-methoxy-2,4,5-trimethylbenzyl)-N-methyl-2-(2-isopropyl-5-methylphenoxy)ethylamine]", "pA2 value": 8.1},
      {"compound": "COc1c(C)c(C)c(OC(C)C)c(C)c1CN(C)CCOc1cc(C)ccc1C(C)C", "note": "[Ex. 14, N-(3-isopropoxy-6-methoxy-2,4,5-trimethylbenzyl)-N-methyl-2-(2-isopropyl-5-methylphenoxy)ethylamine]", "pA2 value": 7.6},
      {"compound": "CCOc1c(C)c(C)c(OC)c(CN(C)CCOc2cc(C)ccc2C(C)C)c1C", "note": "[Ex. 15, N-(3-ethoxy-6-methoxy-2,4,5-trimethylbenzyl)-N-methyl-2-(2-isopropyl-5-methylphenoxy)ethylamine]", "pA2 value": 7.5},
      {"compound": "Cc1ccc(C(C)C)c(OCCN(C)Cc2c(C)c(O)c(C)c(C)c2OCCO)c1", "note": "[Ex. 16, N-{3-hydroxy-6-(2-hydroxyethoxy)-2,4,5-trimethylbenzyl}-N-methyl-2-(2-isopropyl-5-methylphenoxy)ethylamine]", "pA2 value": 7.6},
      {"compound": "C=CCOc1c(C)c(C)c(OC(C)=O)c(C)c1CN(C)CCOc1cc(C)ccc1C(C)C", "note": "[Ex. 17, N-{3-acetoxy-6-(2-propenyloxy)-2,4,5-trimethylbenzyl}-N-methyl-2-(2-isopropyl-5-methylphenoxy)ethylamine]", "pA2 value": 7.4},
      {"compound": "CCN(CCOc1cc(C)c(Cl)cc1C(C)C)Cc1c(C)c(OC(C)=O)c(C)c(C)c1OC(C)C", "note": "[Ex. 18, N-(3-acetoxy-6-isopropoxy-2,4,5-trimethylbenzyl)-N-ethyl-2-(4-chloro-2-isopropyl-5-methylphenoxy)ethylamine]", "pA2 value": 7.2},
      {"compound": "CCOc1c(C)c(C)c(O)c(CNCCOc2cc(C)ccc2C(C)C)c1C", "note": "[Ex. 19, N-(3-ethoxy-6-hydroxy-2,4,5-trimethylbenzyl)-2-(2-isopropyl-5-methylphenoxy)ethylamine]", "pA2 value": 7.3},
      {"compound": "CCOc1c(C)c(C)c(OCc2ccccc2)c(CNCCOc2cc(C)ccc2C(C)C)c1C", "note": "[Ex. 20, N-(2-benzyloxy-5-ethoxy-3,4,6-trimethylbenzyl)-2-(2-isopropyl-5-methylphenoxy)ethylamine]", "pA2 value": 7.2},
      {"compound": "COc1c(C)c(C)c(O)c(C)c1CNCCOc1cc(C)c(O)cc1C(C)C", "note": "[Ex. 21, N-(3-hydroxy-6-methoxy-2,4,5-trimethylbenzyl)-2-(4-hydroxy-2-isopropyl-5-methylphenoxy)ethylamine]", "pA2 value": 9.8},
      {"compound": "COc1c(C)c(C)c(O)c(C)c1CN(CCOc1cc(C)c(O)cc1C(C)C)C(C)C", "note": "[Ex. 22, N-(3-hydroxy-6-methoxy-2,4,5-trimethylbenzyl)-N-isopropyl-2-(4-hydroxy-2-isopropyl-5-methylphenoxy)ethylamine]", "pA2 value": 7.5},
      {"compound": "COCCN(CCOc1cc(C)c(O)cc1C(C)C)Cc1c(C)c(O)c(C)c(C)c1OC", "note": "[Ex. 23, N-(3-hydroxy-6-methoxy-2,4,5-trimethylbenzyl)-N-(2-methoxyethyl)-2-(4-hydroxy-2-isopropyl-5-methylphenoxy)ethylamine]", "pA2 value": 7.6},
      {"compound": "CCCOc1c(C)c(C)c(O)c(C)c1CN(C)CCOc1cc(C)c(O)cc1C(C)C", "note": "[Ex. 24, N-(3-hydroxy-6-propoxy-2,4,5-trimethylbenzyl)-N-methyl-2-(4-hydroxy-2-isopropyl-5-methylphenoxy)ethylamine]", "pA2 value": 8.3},
      {"compound": "CCCCOc1c(C)c(C)c(O)c(C)c1CN(C)CCOc1cc(C)c(O)cc1C(C)C", "note": "[Ex. 26, N-(2-butoxy-5-hydroxy-3,4,6-trimethylbenzyl)-N-methyl-2-(4-hydroxy-2-isopropyl-5-methylphenoxy)ethylamine]", "pA2 value": 8.3},
      {"compound": "CC(=O)Oc1c(C)c(C)c(O)c(CN(C)CCOc2cc(C)c(O)cc2C(C)C)c1C", "note": "[Ex. 27, N-(3-acetoxy-6-hydroxy-2,4,5-trimethylbenzyl)-N-methyl-2-(4-hydroxy-2-isopropyl-5-methylphenoxy)ethylamine]", "pA2 value": 8.1},
      {"compound": "COc1c(C)c(C)c(OC)c(CN(C)CCOc2cc(C)c(O)cc2C(C)C)c1C", "note": "[Ex. 28, N-(2,5-dimethoxy-3,4,6-trimethylbenzyl)-N-methyl-2-(4-hydroxy-2-isopropyl-5-methylphenoxy)ethylamine]", "pA2 value": 9.0},
      {"compound": "COCCOc1c(C)c(C)c(O)c(C)c1CN(C)CCOc1cc(C)c(O)cc1C(C)C", "note": "[Ex. 29, N-{3-hydroxy-6-(2-methoxyethoxy)-2,4,5-trimethylbenzyl}-N-methyl-2-(4-hydroxy-2-isopropyl-5-methylphenoxy)ethylamine]", "pA2 value": 8.2},
      {"compound": "CCOc1c(C)c(C)c(O)c(C)c1CN(CCOc1cc(C)c(O)cc1C(C)C)C(C)C", "note": "[Ex. 30, N-(2-ethoxy-5-hydroxy-3,4,6-trimethylbenzyl)-N-isopropyl-2-(4-hydroxy-2-isopropyl-5-methylphenoxy)ethylamine]", "pA2 value": 7.2},
      {"compound": "CCN(CCOc1cc(C)c(O)cc1C(C)C)Cc1c(C)c(O)c(C)c(C)c1OC", "note": "[Ex. 31, N-ethyl-N-(3-hydroxy-6-methoxy-2,4,5-trimethylbenzyl)-2-(4-hydroxy-2-isopropyl-5-methylphenoxy)ethylamine]", "pA2 value": 8.6},
      {"compound": "COc1cc(C(C)C)c(OCCN(C)Cc2c(C)c(OC)c(C)c(C)c2OC)cc1C", "note": "[Ex. 32, N-(2,5-dimethoxy-3,4,6-trimethylbenzyl)-N-methyl-2-(2-isopropyl-4-methoxy-5-methylphenoxy)ethylamine]", "pA2 value": 7.2},
      {"compound": "CC(=O)Oc1cc(C(C)C)c(OCCN(C)C)cc1C", "note": "[moxisylyte hydrochloride, reference compound]", "pA2 value": 7.6},
      {"compound": "COc1cc2nc(N3CCN(C(=O)c4ccco4)CC3)nc(N)c2cc1OC", "note": "[prazosin hydrochloride, reference compound]", "pA2 value": 8.6}
    ]}
  ]
}
